≈ marks a conversion by molar mass, not a printed value.
Columns and labels:
tumour cell lines = assay: CIMA assay, overall statements on the panel of human cell lines; type: cell-based; conditions: synthetic compound, 72 h, listed as Synthesized compound II
Protocol: Prepared extracts were assessed following chronic exposure conditions in which cells were seeded at 2×10^3 cells/well (96 wells-plate) and incubated with test compounds for 72 h. Each compound was evaluated over a range of concentrations (0, 10, 25, 50 or 100 μg/ml). Cell proliferation was initially assessed using a standard colorimetric indicator of metabolic activity (CIMA) assay. In this assay, tetrazole reduction was evaluated as a measure of metabolic function that evaluates mitochondrial activity to determine the extent of cell proliferation within a culture. This assay is based on the reduction of yellow tetrazolium salt to purple formazan by mitochondrial reductases enzyme in viable cells, resulting in a color change that confers a change in absorbance. […]
Crude extract #1 was fractionated into five fractions by C-18 SPE column separation using 15 ml each of 5% methanol (fraction 1), 25% methanol (fraction 2), 50% methanol (fraction 3), 100% methanol (fraction 4) and methanol:dichloromethane (1:1) (fraction 5). Extracts were fractionated and the resulting fractions were evaluated using CIMA assay. […]
Experimental: Stock solutions of the test compounds were prepared in dimethylsulfoxide (DMSO) at 10 mg/ml and stored at −20° C. until used. […] Cell proliferation was initially assessed using a standard colorimetric indicator of metabolic activity (CIMA) assay. […]

A549 (lung carcinoma) = assay: CIMA assay (tetrazolium reduction, cell viability, 72 h); type: cell-based, human; conditions: Homo sapiens
Protocol: (§1) Prepared extracts were assessed following chronic exposure conditions in which cells were seeded at 2×10^3 cells/well (96 wells-plate) and incubated with test compounds for 72 h. Each compound was evaluated over a range of concentrations (0, 10, 25, 50 or 100 μg/ml). Cell proliferation was initially assessed using a standard colorimetric indicator of metabolic activity (CIMA) assay. In this assay, tetrazole reduction was evaluated as a measure of metabolic function that evaluates mitochondrial activity to determine the extent of cell proliferation within a culture. This assay is based on the reduction of yellow tetrazolium salt to purple formazan by mitochondrial reductases enzyme in viable cells, resulting in a color change that confers a change in absorbance. Seven human cell lines were selected for primary evaluation: U373 (glioblastoma-astrocytoma), A549 (lung carcinoma), THP-1 (acute monocytic leukemia), MCF7 (mammary gland adenocarcinoma), SKOV3 (ovarian adenocarcinoma), PC3 (prostate adenocarcinoma) and CCD1079SK (fibroblast, noncancerous but proliferating) (see FIG. 2 and Table 2). Results are expressed in Table 2 as % viability (means±standard deviation of three replicates), with LD50/IC50 values in Tables 3 and 6. […] The maximum DMSO concentration was 1% at 100 μg/ml with 5% SDS used as a known toxic inducer.
(§2) Experimental: Stock solutions of the test compounds were prepared in dimethylsulfoxide (DMSO) at 10 mg/ml and stored at −20° C. until used. This preparation ensures that the DMSO content delivered to cells in culture never exceeds 1%. Appropriate cells number, based on previous assays, were seeded in 96 well plate and incubated with test compounds (up to 8 log concentrations, 0 to 50 or 100 μg/ml) for 72 h. Cell proliferation was initially assessed using a standard colorimetric indicator of metabolic activity (CIMA) assay. In this assay, reduction of yellow tetrazolium salt (MTT) to purple formazan by mitochondrial reductases enzymes in viable cells were measured as change in absorbance (λ=500-600).
(§3) Seven human cell lines were evaluated: U373 (glioblastoma-astrocytoma), A549 (lung carcinoma), PC3 (prostate adenocarcinoma), THP1 (acute monocytic leukemia), MDA-MB-231 (mammary gland adenocarcinoma), SKOV3 (ovarian adenocarcinoma) and CCD1079Sk (normal skin fibroblast) cells.

[1] = test system: SKOV3 (ovarian adenocarcinoma); assay: as above; type: cell-based, human; conditions: Homo sapiens
Protocol: as §1, §2, §3

[2] = test system: THP-1 (acute monocytic leukemia); assay: as above; type: cell-based, human; conditions: Homo sapiens
Protocol: as §1, §2, §3

[3] = test system: U373 (glioblastoma-astrocytoma); assay: as above; type: cell-based, human; conditions: Homo sapiens, U373 MG
Protocol: as §1, §2, §3

[4] = test system: CCD1079SK (fibroblast, noncancerous but proliferating); assay: as above; type: cell-based, human; conditions: Homo sapiens, Fibroblast; 1079SK; 72 h
Protocol: as §1, §2, §3

[5] = as above; type: cell-based, human; conditions: human
Protocol: as §1, §2, §3

[6] = test system: PC3 (prostate adenocarcinoma); assay: as above; type: cell-based, human; conditions: Homo sapiens
Protocol: as §1, §2, §3

[7] = A549, read-out: average cell viability
[8] = SK-OV-3, read-out: average cell viability
[9] = THP-1, read-out: average cell viability
[10] = read-out: average cell viability

CCCCC[C@H](O)[C@H](O)/C=C/[C@@H]1CCCCCCCC(=O)O1 [compound (II), 12R, 13S-Dihydroxy-10-Octadecen-9S-olide]
antiproliferative activity in tumour cell lines (tumour cell lines): significantly reduced tumour cell viability and growth in vitro
viability at 1 µg/mL (A549 (lung carcinoma); [7]): 95%
viability at 10 µg/mL (A549 (lung carcinoma); [7]): 93%
viability at 50 µg/mL (A549 (lung carcinoma); [7]): 92%
viability at 100 µg/mL (A549 (lung carcinoma); [7]): 61%
IC50 (A549 (lung carcinoma); A549, 72 h): 22 mg/L (≈ 70.5 µM)
viability at 1 µg/mL [1, 8]: 97%
viability at 10 µg/mL [1, 8]: 97%
viability at 50 µg/mL [1, 8]: 94%
viability at 100 µg/mL [1, 8]: 85%
IC50 ([1]; SK-OV-3, SKOV3, 72 h): 67.7 mg/L (≈ 217 µM)
viability at 1 µg/mL [2, 9]: 96%
viability at 10 µg/mL [2, 9]: 84%
viability at 50 µg/mL [2, 9]: 68%
viability at 100 µg/mL [2, 9]: 44%
IC50 ([2]; THP-1, 72 h): 25.9 mg/L (≈ 82.8 µM)
viability at 1 µg/mL [3, 10]: 90%
viability at 10 µg/mL [3, 10]: 85%
viability at 50 µg/mL [3, 10]: 68%
viability at 100 µg/mL [3, 10]: 3%
IC50 ([3]; U373, 72 h): 39.1 mg/L (≈ 125 µM)
IC50 [4]: 34.9 mg/L (≈ 112 µM)
viability at 72 h, 1 ug/mL [5]: 91%
viability at 72 h, 10 ug/mL [5]: 84%
viability at 72 h, 50 ug/mL [5]: 90%
viability at 72 h, 100 ug/mL [5]: 17%
viability at 1 µg/mL [6, 10]: 100%
viability at 10 µg/mL [6, 10]: 93%
viability at 50 µg/mL [6, 10]: 97%
viability at 100 µg/mL [6, 10]: 19%
IC50 ([6]; PC3, 72 h): 37.7 mg/L (≈ 121 µM)
